Test: Pharmacokinetic evaluation of liquid bevirimat dosage forms, oral gavage, male Cynomolgus monkeys
Conditions: male, cynomolgus monkey, in vivo, po; for concentration at 72 hr: BLOQ=below 50 ng/mL; for AUC: AUCall
Method: Six male Cynomolgus monkeys having an initial body weight of about 3.5 to about 4.5 kg are allowed 7 days to acclimate to their individual housing units. Monkeys are supplied with water and a commercial diet ad libitum prior to the study initiation. Food is withheld from the monkeys for a minimum of twelve hours before the study and during the study until four hours postdose when food is returned. Water is supplied ad libitum.
Test formulations are administered to the monkeys at time 0 on appropriate days. Test formulations will be dosed orally via oral gavage or intravenously.
Samples are drawn at the frequencies indicated below. Each blood sample (0.5 mL) is collected from the monkey's saphenous vein via a butterfly catheter and placed into a chilled polypropylene tube containing sodium heparin as the anticoagulant. Blood samples are centrifuged at a temperature of 4° C. at a speed of 3,000 rpm for 15 minutes. All samples are maintained chilled throughout processing. Plasma is collected after centrifugation, pipetted into a 2-mL polypropylene microtube, and frozen on dry-ice pending analytical evaluation.

[1] = 50 mg FAE/monkey, Plasma concentration, 12.5 mg FAE/mL in 10% HPβCD, 50 mg FAE/monkey oral gavage, monkeys 186,116,120,AVG
[2] = 50 mg FAE/monkey, Plasma concentration, 12.5 mg FAE/mL in 15% EtOH:0.5% TPGS:15% PG:5% Glycerin, 0.2% Povidone K90, 50 mg FAE/monkey oral gavage, monkeys 117,118,119,AVG
[3] = 50 mg FAE/monkey, Plasma concentration, 25 mg/mL in 30% EtOH:1% TPGS:30% PG:10% Glycerin, 50 mg FAE/monkey oral gavage, monkeys 117,118,119,AVG
[4] = 50 mg FAE/monkey, Plasma concentration, 50 mg FAE/mL in 40% EtOH:40% PG:20% Glycerol, 50 mg FAE/monkey oral gavage, monkeys 117,118,119,AVG
[5] = 50 mg, 12.5 mg FAE/mL in 10% HPβCD, 50 mg FAE/monkey oral gavage, monkeys 186,116,120,AVG
[6] = 50 mg, 12.5 mg FAE/mL in 15% EtOH:0.5% TPGS:15% PG:5% Glycerin, 0.2% Povidone K90, 50 mg FAE/monkey oral gavage, monkeys 117,118,119,AVG
[7] = 50 mg, 12.5 mg FAE/mL in 40% PG, 20% Glycerin, 0.25% Tween80, 0.2% Povidone K15, 50 mg FAE oral gavage, monkeys 186,116,120,AVG

For `C=C(C)[C@@H]1CC[C@]2(C(=O)O)CC[C@]3(C)[C@H](CC[C@@H]4[C@@]5(C)CC[C@H](OC(=O)CC(C)(C)C(=O)O)C(C)(C)[C@@H]5CC[C@]43C)[C@@H]12` [Bevirimat, 3-O-(3′,3′-dimethylsuccinyl)betulinic acid], the concentration at 2 hr [1] was 59200 ng/mL, the concentration at 2 hr [2] was 51300 ng/mL and the concentration at 2 hr [3] was 56700 ng/mL. It also gave a concentration at 2 hr [4] of 25800 ng/mL, a concentration at 2 hr (50 mg FAE/monkey, Plasma concentration, 50 mg FAE/mL in 40% PG:20% Glycerin:1% TPGS:5% Tween 80 in SWFI, 50 mg FAE/monkey oral gavage, monkeys 117,118,119,AVG) of 17900 ng/mL and a concentration at 4 hr [1] of 35000 ng/mL. It also gave a concentration at 4 hr [2] of 33100 ng/mL, a concentration at 6 hr [1] of 20700 ng/mL and a concentration at 6 hr [2] of 23100 ng/mL. It also gave a concentration at 8 hr (50 mg FAE/monkey, Plasma concentration, 8.0 hr, 12.5 mg FAE/mL in 10% HPβCD, 50 mg FAE/monkey oral gavage, monkeys 186,116,120,AVG) of 13000 ng/mL, a concentration at 24 hr (50 mg FAE/monkey, Plasma concentration, 24 hr, 12.5 mg FAE/mL in 10% HPβCD, 50 mg FAE/monkey oral gavage, monkeys 186,116,120,AVG) of 1560 ng/mL and a concentration at 72 hr [1] of 120 ng/mL. The concentration at 72 hr (50 mg FAE/monkey, Plasma concentration, 12.5 mg FAE/mL in 15% EtOH:0.5% TPGS:15% PG:5% Glycerin, 50 mg FAE/monkey oral gavage, monkeys 117,118,119,AVG) was 233 ng/mL, the concentration at 72 hr [3] was 69.3 ng/mL and the concentration at 72 hr [4] was 76 ng/mL. For the same compound, the AUC [5] was 348 µg·h/mL, the AUC [6] was 488 µg·h/mL and the AUC [7] was 212 µg·h/mL. For the same compound, the Cmax [5] was 59200 ng/mL, the Cmax [6] was 51300 ng/mL and the Cmax (50 mg, 12.5 mg FAE/mL in 15% Ethanol, 30% PG, 10% Glycerin, 50 mg FAE oral gavage, monkeys 117,118,119,AVG) was 64100 ng/mL. For the same compound, the Cmax [7] was 42800 ng/mL, the Cmax (50 mg, 12.5 mg FAE/mL in 40% PG, 20% Glycerin, 1% TPGS, 0.25% Tween80, 0.2% Povidone K15, 50 mg FAE/monkey oral gavage, monkeys 117,118,119,AVG) was 93300 ng/mL and the Cmax (50 mg, 50 mg FAE/mL in 40% EtOH:40% PG:20% Glycerol, 50 mg FAE/monkey oral gavage, monkeys 117,118,119,AVG) was 25800 ng/mL. The Cmax (50 mg, 50 mg/monkey, PG/glycerin/Vitamin ETPGS/Tween80/Plasdone C15 formulation, AVG) was 62400 ng/mL, the Cmax (50 mg, 50 mg/monkey, PG/glycerin/Vitamin ETPGS/Tween80/Plasdone C15 formulation, individual monkey) was 55100 ng/mL and the Cmax (50 mg, 50 mg/monkey, PG/glycerin/Vitamin ETPGS/ethanol formulation, AVG) was 60100 ng/mL. The Cmax (50 mg, 50 mg/monkey, PG/glycerin/Vitamin ETPGS/ethanol formulation, individual monkey) was 58900 ng/mL, the half-life (50 mg, t1/2, 12.5 mg FAE/mL in 10% HPβCD, 50 mg FAE/monkey oral gavage, monkeys 186,116,120,AVG) was 9.9 h and the half-life (50 mg, t1/2, 12.5 mg FAE/mL in 15% EtOH:0.5% TPGS:15% PG:5% Glycerin, 50 mg FAE/monkey oral gavage, monkeys 117,118,119,AVG) was 12 h. The half-life (50 mg, t1/2, 12.5 mg FAE/mL in 15% EtOH:0.5% TPGS:15% PG:5% Glycerin, 0.2% Povidone K90, 50 mg FAE/monkey oral gavage, monkeys 117,118,119,AVG) was 12.2 h, the half-life (50 mg, t1/2, 12.5 mg FAE/mL in 15% Ethanol, 30% PG, 10% Glycerin, 50 mg FAE oral gavage, monkeys 117,118,119,AVG) was 8.9 h and the half-life (50 mg, t1/2, 12.5 mg FAE/mL in 40% PG, 20% Glycerin, 0.25% Tween80, 0.2% Povidone K15, 50 mg FAE oral gavage, monkeys 186,116,120,AVG) was 8 h. For the same compound, the half-life (50 mg, t1/2, 12.5 mg FAE/mL in 40% PG, 20% Glycerin, 1% TPGS, 0.25% Tween80, 50 mg FAE/monkey oral gavage, monkeys 186,116,120,AVG) was 9.9 h, the half-life (50 mg, t1/2, 12.5 mg FAE/mL in 40% PG, 20% Glycerin, 1% TPGS, 0.25% Tween80, 0.2% Povidone K15, 50 mg FAE/monkey oral gavage, monkeys 117,118,119,AVG) was 10.4 h and the half-life (50 mg, t1/2, 25 mg/mL in 30% EtOH:1% TPGS:30% PG:10% Glycerin, 50 mg FAE/monkey oral gavage, monkeys 117,118,119,AVG) was 10.6 h. The half-life (50 mg, t1/2, 50 mg FAE/mL in 40% EtOH:40% PG:20% Glycerol, 50 mg FAE/monkey oral gavage, monkeys 117,118,119,AVG) was 9.8 h, the half-life (50 mg, t1/2, 50 mg FAE/mL in 40% PG:20% Glycerin:1% TPGS:5% Tween 80 in SWFI, 50 mg FAE/monkey oral gavage, monkeys 117,118,119,AVG) was 11.8 h and the half-life (50 mg, t1/2, 10% HPβCD, 50 mg FAE/monkey oral gavage, monkeys 117,118,119,AVG) was 10 h. The half-life (50 mg, t1/2, oral, 50 mg/monkey, PG/glycerin/Vitamin ETPGS/Tween80/Plasdone C15 formulation, AVG) was 6.4 h, the half-life (50 mg, t1/2, oral, 50 mg/monkey, PG/glycerin/Vitamin ETPGS/Tween80/Plasdone C15 formulation, individual monkey) was 8.6 h and the half-life (50 mg, t1/2, oral, 50 mg/monkey, PG/glycerin/Vitamin ETPGS/ethanol formulation, AVG) was 6.9 h. The half-life (50 mg, t1/2, oral, 50 mg/monkey, PG/glycerin/Vitamin ETPGS/ethanol formulation, individual monkey) was 6.2 h, the Tmax (50 mg, tmax, 12.5 mg FAE/mL in 40% PG, 20% Glycerin, 1% TPGS, 0.25% Tween80, 0.2% NaCMC, 50 mg FAE/monkey oral gavage, monkeys 117,118,119,AVG) was 1 h and the concentration at 0.25 h (50 mg/monkey, Plasma Concentration, PG/glycerin/Vitamin ETPGS/Tween80/Plasdone C15 formulation, AVG) was 64.6 ng/mL. The concentration at 0.25 h (50 mg/monkey, Plasma Concentration, PG/glycerin/Vitamin ETPGS/Tween80/Plasdone C15 formulation, individual monkey) was 69.8 ng/mL and the concentration at 0.5 h (50 mg/monkey, Plasma Concentration, PG/glycerin/Vitamin ETPGS/Tween80/Plasdone C15 formulation, 0.50 hr, AVG) was 3550 ng/mL.

Reference: patent publication US20100216751A1 (priority 2007, published 2010)
